Measurements reported in PMC10610115, “Identification of Potential JNK3 Inhibitors: A Combined Approach Using Molecular Docking and Deep Learning-Based Virtual Screening” (Pharmaceuticals, 2023).

Molecular target: T1, JNK3 (c-Jun N-terminal kinase 3) (Homo sapiens, UniProt P53779)
T1 construct: gene MAPK10
Assay: HTRF-type kinase assay (Cryptate/XL665), dose response
Assay type: biochemical

T1 sequence (P53779 whole entry): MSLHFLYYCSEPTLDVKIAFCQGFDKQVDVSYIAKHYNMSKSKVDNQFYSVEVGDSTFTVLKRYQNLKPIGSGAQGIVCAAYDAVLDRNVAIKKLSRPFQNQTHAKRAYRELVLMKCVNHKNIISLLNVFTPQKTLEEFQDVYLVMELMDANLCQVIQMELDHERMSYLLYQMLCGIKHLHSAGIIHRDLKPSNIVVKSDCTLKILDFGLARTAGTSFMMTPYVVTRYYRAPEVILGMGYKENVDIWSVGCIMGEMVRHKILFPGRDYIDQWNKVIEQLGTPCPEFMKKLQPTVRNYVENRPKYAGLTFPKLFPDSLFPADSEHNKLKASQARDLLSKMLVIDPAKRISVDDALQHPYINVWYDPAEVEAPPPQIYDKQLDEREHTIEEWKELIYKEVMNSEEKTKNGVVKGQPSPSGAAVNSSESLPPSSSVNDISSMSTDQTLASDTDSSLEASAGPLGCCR

Q: For CCc1nc(-c2cccc(C)c2)c(-c2ccnc(NC(=O)c3ccccc3)c2)s1 [compound 6, N-(4-(2-ethyl-4-(m-tolyl)thiazol-5-yl)pyridin-2-yl)benzamide], which IC50 is on record?
A: 130 nM
